Data taken from PubChem BioAssay (NCI).
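Growth conditions: 96-well plates. Treatment: test compound, 48 hours, 5 concentrations. Analysis: linear interpolation between bracketing concentrations; unreached endpoints set to highest concentration. TGI marks complete inhibition of growth.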

What was measured:
Assay in all cases: NCI-60 cell line screen, 48 h
[1] = tested on: HCT-116 colon
[2] = tested on: NCI-H23 lung
[3] = tested on: A549 NSCLC
[4] = tested on: COLO 205 colon
[5] = tested on: UACC-257 melanoma
[6] = tested on: U251 CNS
[7] = tested on: SK-OV-3 ovarian
[8] = tested on: SNB-19 CNS
[9] = tested on: MOLT-4 leukemia
[10] = tested on: HCT-15 colon
[11] = tested on: M14 melanoma
[12] = tested on: SF-268 CNS
[13] = tested on: 786-0 renal
[14] = tested on: OVCAR-4 ovarian
[15] = tested on: MDA-MB-435
[16] = tested on: HL-60(TB) leukemia
[17] = tested on: LOX IMVI melanoma
[18] = tested on: A498 renal
[19] = tested on: OVCAR-5 ovarian
[20] = tested on: SK-MEL-2 melanoma

Compound | TGI [1] [µM] | TGI [2] [µM] | TGI [3] [µM] | TGI [4] [µM] | TGI [5] [µM] | TGI [6] [µM] | TGI [7] [µM] | TGI [8] [µM] | TGI [9] [µM] | TGI [10] [µM] | TGI [11] [µM] | TGI [12] [µM] | TGI [13] [µM] | TGI [14] [µM] | TGI [15] [µM] | TGI [16] [µM] | TGI [17] [µM] | TGI [18] [µM] | TGI [19] [µM] | TGI [20] [µM]
C/C(N)=N/OCc1nc(C)no1 | > 100 | > 100 | > 100 | > 100 | > 100 | > 100 | > 100 | > 100 | > 100 | > 100 | > 100 | > 100 | > 100 | > 100 | > 100 | > 100 |  |  |  | 
C=C[C@]1(O[Si](C)(C)C)C[C@@]2(C(=O)OCC)C(O)C(=O)N3CCc4cc(OC)c(OC)cc4[C@]312 (some centres not stated) | > 100 | > 100 | > 100 | > 100 | > 100 | > 100 | > 100 | > 100 | > 100 | > 100 | > 100 | > 100 | > 100 | > 100 | > 100 |  | > 100 | > 100 | > 100 | > 100
O=[N+]([O-])C(=C/c1cccc2ccccc12)/C(=C\c1cccc2ccccc12)[N+](=O)[O-] | 7.2 | 4.36 | > 58.6 | > 21.7 | 5.44 | 4.32 | 19.1 | 11.5 | 8.59 | 3.95 | 11.3 | 7.67 | 3.72 | 7.06 | 6.12 |  | 3.06 | 33.5 | 12.3 | 55.3
COC(=O)[C@@]1(NC(=O)C(CC(=O)OC(C)(C)C)NC(=O)OC(C)(C)C)C[C@H]1C (some centres not stated) | > 100 | > 100 | > 100 | > 100 | > 100 | > 100 | > 100 | > 100 | > 100 | > 100 | > 100 | > 100 | > 100 | > 100 | > 100 |  | > 100 | > 100 | > 100 | > 100
O=C1/C(=C/c2cccs2)NC(=S)N1CN1CCCCC1 | > 100 | > 100 | > 100 | 47.3 |  | > 100 | > 100 | > 100 | > 100 | > 100 | > 100 | > 100 | > 100 | > 100 | > 100 |  | > 100 | > 100 | > 100 | > 100
C=C(CCC=C(C)C)C1CC=C(C)CC1 (configuration not stated) | 57.9 | 34.9 | 39 | 71.5 | > 100 | 34.8 | > 100 | > 100 |  | 39.6 | > 100 | > 100 | 35.7 |  | 35.7 |  | 21.9 | > 100 | > 100 | 37.5
c1cc(CN2CCNCCNCCNCC2)cc(CN2CCNCCNCCNCC2)c1 | > 100 | > 100 | > 100 | > 100 | > 100 | > 100 | > 100 | > 100 | > 100 |  | > 100 | > 100 | > 100 | > 100 | > 100 |  | > 100 |  | > 100 | > 100
O/N=C1/CCCc2nonc21 | > 100 | > 100 | > 100 | > 100 | > 100 | > 100 | > 100 | > 100 | > 100 | > 100 | > 100 | > 100 | > 100 | > 100 | > 100 | > 100 | > 100 |  | > 100 | > 100
CN(CCNC(=S)c1cn(C)c2c1ccc1ccccc12)CCNC(=S)c1cn(C)c2c1ccc1ccccc12 | > 100 | > 100 | > 100 | > 100 | > 100 | > 100 | > 100 | > 100 | > 100 | > 100 |  | > 100 | > 100 | > 100 | > 100 |  | > 100 |  | > 100 | > 100
CCCC(=O)OCOC(=O)N(C)N=Nc1ccc(C(=O)OCC)cc1 | 46.6 | 66.4 | > 100 | 51.5 | > 100 | 84.1 | > 100 | > 100 | > 100 | 75.4 | > 100 | > 100 | 59.8 | > 100 | > 100 |  | 37 | > 100 | > 100 | 36.3
CCC(C)N1CN(c2ccccc2)C2(CCN(CCCSc3ccc(F)cc3)CC2)C1=O (configuration not stated) | 10.1 | 16 | 15.1 | 3.47 | 7.37 | 13.7 | 19.1 | 19.7 | 13.3 | 4.2 | 7.08 | 23.7 | 7.88 |  | 11.7 | 17.8 | 8.35 |  | 7.06 | 
C[C@H](NC(=O)CNC(=O)CCCCCC(=O)NCC(=O)N[C@@H](C)C(=O)OCc1ccccc1)C(=O)OCc1ccccc1 | > 100 | > 100 | > 100 | > 100 | > 100 | > 100 | > 100 | > 100 | > 100 | > 100 | > 100 | > 100 | > 100 | > 100 | > 100 |  | > 100 |  | > 100 | > 100
FC(F)(F)c1cccnc1Sc1nc2ccccc2s1 | > 100 | > 100 | > 100 | > 100 | > 100 | > 100 |  | > 100 | > 100 | > 100 | > 100 | > 100 | > 100 | > 100 | > 100 |  |  | > 100 | > 100 | > 100
